In ChEMBL document CHEMBL1201862, “PubChem BioAssay data set” (2004):
Several values for one entry are separate records, joined by “and”; a condition that tells them apart may be missing. Identical values can stand only once.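 Each compound was tested at five concentrations against cells in 96-well plates for 48 hours. GI50 marks 50% less growth.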 Activity calls are given as the source filed them. Cut-off read from the data, not from the text of the source: active = GI50 up to about 1.1 µM and inactive = higher.

Key:
Test in all cases: NCI tumour cell line growth inhibition, 48 h
[1] = system: CCRF-CEM
[2] = system: DU-145
[3] = system: EKVX
[4] = system: Hs-578T
[5] = system: IGROV-1
[6] = system: K562
[7] = system: KM12
[8] = system: MCF7
[9] = system: NCI-H226
[10] = system: NCI-H522
[11] = system: NCI/ADR-RES
[12] = system: OVCAR-8
[13] = system: RXF 393
[14] = system: SF-295
[15] = system: SK-MEL-28
[16] = system: U-251
[17] = system: UO-31
[18] = system: MDA-MB-231
[19] = system: SNB-19
[20] = system: SR

SMILES	GI50 [1]	GI50 [2]	GI50 [3]	GI50 [4]	GI50 [5]	GI50 [6]	GI50 [7]	GI50 [8]	GI50 [9]	GI50 [10]	GI50 [11]	GI50 [12]	GI50 [13]	GI50 [14]	GI50 [15]	GI50 [16]	GI50 [17]	GI50 [18]	GI50 [19]	GI50 [20]
NC(N)=NCCC[C@H](N)C(=O)NCC(=O)N[C@@H](CC(=O)O)c1ncc(NC(=O)C(F)(F)F)o1	> 25 µM (inactive)	> 25 µM (inactive)	> 25 µM (inactive)	> 25 µM (inactive)	> 25 µM (inactive)	> 25 µM (inactive)	> 25 µM (inactive)	> 25 µM (inactive)	> 25 µM (inactive)	> 25 µM (inactive)	> 25 µM (inactive)	> 25 µM (inactive)	> 25 µM (inactive)	> 25 µM (inactive)	> 25 µM (inactive)	> 25 µM (inactive)	> 25 µM (inactive)			
O=C(c1ccccn1)c1nnn2ccccc12	> 100 µM (inactive)	> 100 µM (inactive)	> 100 µM (inactive)	> 100 µM (inactive)	> 100 µM (inactive)	> 100 µM (inactive)	> 100 µM (inactive)	> 100 µM (inactive)	> 100 µM (inactive)	> 100 µM (inactive)		> 100 µM (inactive)		> 100 µM (inactive)	> 100 µM (inactive)	> 100 µM (inactive)		> 100 µM (inactive)	> 100 µM (inactive)	> 100 µM (inactive)
CNC(=O)OC1/C(C)=C\C(C)C(O)C(OC)CC(C)CC2=C(OC)C(=O)C=C(C2=O)N(C)C(=O)/C(C)=C/C=C\C1OC (stereo not given)	0.938 µM (active)	9.64 µM (inactive)	11.9 µM (inactive)	4.03 µM (inactive)	10.8 µM (inactive)	0.578 µM (active)	10.4 µM (inactive)		19.5 µM (inactive)	0.879 µM (active)	20 µM (inactive)	7.38 µM (inactive)	2.25 µM (inactive)	24.4 µM (inactive)	2.88 µM (inactive)	15.2 µM (inactive)	7.69 µM (inactive)	2.05 µM (inactive)	36.2 µM (inactive)	
CC(=O)OC1C(O)C(C)OC(OC2C(OC(=O)C3CCC4C(C3)OC3(CC(OC(=O)/C=C/c5ccccc5)C(C)CO3)C43CO3)OC(C)C(O)C2OC(C)=O)C1O (stereo not given)	0.00351 µM (active)	0.0103 µM (active)	0.0148 µM (active)	0.00124 µM (active)	0.0134 µM (active)	0.00622 µM (active)	0.00912 µM (active)	0.00429 µM (active)	0.0142 µM (active)	0.00284 µM (active)		0.0352 µM (active)	0.0319 µM (active)	0.0262 µM (active)	0.008 µM (active)	0.00679 µM (active)	0.721 µM (active)	0.0203 µM (active)	0.00617 µM (active)	0.00258 µM (active)
COc1cc(C(=O)n2c3ccc(Br)cc3c3nc4ccccc4nc32)cc(OC)c1OC	> 100 µM (inactive)	> 100 µM (inactive)	> 100 µM (inactive)		> 100 µM (inactive)	> 100 µM (inactive)	> 100 µM (inactive)	> 100 µM (inactive)	> 100 µM (inactive)	36.6 µM (inactive)	> 100 µM (inactive)	> 100 µM (inactive)	19.7 µM (inactive)	64 µM (inactive)	> 100 µM (inactive)	> 100 µM (inactive)	> 100 µM (inactive)	72.8 µM (inactive)	51.6 µM (inactive)	> 100 µM (inactive)
NC(=O)/N=C1\NCCC(=O)N1CCc1c[nH]c2ccccc12	14.4 µM (inactive)	21 µM (inactive)	14.6 µM (inactive)	20.5 µM (inactive)	21.2 µM (inactive)	12.4 µM (inactive)	37.8 µM (inactive)		18.2 µM (inactive)	25.7 µM (inactive)	17.2 µM (inactive)	17.9 µM (inactive)	12.1 µM (inactive)	41.2 µM (inactive)	20.9 µM (inactive)	45.2 µM (inactive)	15.9 µM (inactive)	8.09 µM (inactive)	21.4 µM (inactive)	25.8 µM (inactive)
C=C(C)C12OC3(c4ccccc4)OC1C1C4OC4(CO)C(O)C4(O)C(=O)C(C)=CC4C1(O3)C(C)C2OC(=O)/C=C/C=C/c1ccccc1 (stereo not given)	0.128 µM (active)	0.215 µM (active)	0.188 µM (active)		0.537 µM (active)	< 0.0005 µM (active)	0.156 µM (active)	0.222 µM (active)	0.228 µM (active)	0.267 µM (active)	0.344 µM (active)	0.357 µM (active)	0.207 µM (active)	< 0.0005 µM (active)	0.33 µM (active)	0.197 µM (active)	0.0702 µM (active)	< 0.0005 µM (active)	0.713 µM (active)	0.122 µM (active)
COc1ccc2c(c1)c(=O)c1c(NCCCN(C)C)ccc3ncn2c31	1.61 µM (inactive)	4.66 µM (inactive)	13.8 µM (inactive)	10.6 µM (inactive)	3.5 µM (inactive)	2.92 µM (inactive)	1.38 µM (inactive)	0.714 µM (active)	2.9 µM (inactive)	0.993 µM (active)	0.832 µM (active)	0.495 µM (active)	0.366 µM (active)	1.47 µM (inactive)	13.2 µM (inactive)	1.35 µM (inactive)	2.62 µM (inactive)		3.95 µM (inactive)	2.19 µM (inactive)
C=C1CC[C@@H](C)[C@](C)(CCc2ccoc2)C/C=C\C=C/1C(=O)O	28.4 µM (inactive)		64.6 µM (inactive)	71 µM (inactive)	51.4 µM (inactive)	32.3 µM (inactive)	33.1 µM (inactive)	33.3 µM (inactive)	35.6 µM (inactive)		25.7 µM (inactive)	21 µM (inactive)	29.9 µM (inactive)	38.8 µM (inactive)	21.9 µM (inactive)	34.3 µM (inactive)	34.1 µM (inactive)	59.2 µM (inactive)	> 100 µM (inactive)	23 µM (inactive)
CCOP(=O)(OCC)C(C)(CC)NC(=O)C(C(F)(F)F)C(F)(F)F (stereo not given)	22 µM (inactive) and 21.9 µM (inactive)	> 100 µM (inactive)	> 100 µM (inactive)	> 100 µM (inactive)	> 100 µM (inactive)		49.5 µM (inactive) and 58.2 µM (inactive)	> 31.6 µM (inactive) and 29.7 µM (inactive)	> 100 µM (inactive)		> 100 µM (inactive)	> 100 µM (inactive)	> 100 µM (inactive)	> 100 µM (inactive)	> 100 µM (inactive)	> 100 µM (inactive)	> 100 µM (inactive) and 97.3 µM (inactive)		> 100 µM (inactive)	63.4 µM (inactive) and 33.8 µM (inactive)
Cc1nc(Cl)nc(Cl)c1C	> 100 µM (inactive)		> 100 µM (inactive)	> 100 µM (inactive)	> 100 µM (inactive)	> 100 µM (inactive)	> 100 µM (inactive)	> 100 µM (inactive)	> 100 µM (inactive)	> 100 µM (inactive)	> 100 µM (inactive)	> 100 µM (inactive)	> 100 µM (inactive)	> 100 µM (inactive)	> 100 µM (inactive)	> 100 µM (inactive)	> 100 µM (inactive)		> 100 µM (inactive)	> 100 µM (inactive)
